{"source": "patent US11266707B2", "about": "“Nutraceuticals for the prevention, inhibition, and treatment of SARS-CoV-2 and associated COVID-19” (priority 2020, dated 2022)", "key": {"[1]": {"tested_on": "primary peritoneal macrophages", "settings": "cited from earlier work"}, "[2]": {"tested_on": "LPS-challenged macrophages", "settings": "pre-incubated 6 h with 0 to 50 μM, then LPS 24 h; cited from earlier work"}, "LPS-induced ARDS [3]": {"tested_on": "LPS-induced ARDS", "settings": "cited from earlier work"}, "[4]": {"tested_on": "lipopolysaccharide-activated macrophages", "settings": "cited from earlier work"}, "macrophage foam cells": {"tested_on": "macrophage foam cells", "settings": "pretreatment; cited from earlier work"}, "[5]": {"settings": "10 mg/kg intravenously then 10 mg/kg/h infusion; cited from earlier work"}, "[6]": {"settings": "cited from earlier work"}, "[7]": {"settings": "10 mg/kg intraperitoneally at 1 and 6 h after CL2P and every 12 h; 18 h; cited from earlier work"}, "[8]": {"settings": "10 mg/kg intraperitoneally; 72 h after CL2P; cited from earlier work"}, "[9]": {"settings": "cited from earlier work", "remark": "listed apart in the source"}, "LPS-induced ARDS [10]": {"tested_on": "LPS-induced ARDS", "settings": "cited from earlier work", "remark": "listed apart in the source"}, "NK cell": {"tested_on": "NK cell", "assay": "Pterostilbene given as nanostilbene to cancer patients: NK cell activity and interferon gamma", "type": "in vivo, human", "settings": "administered in the form of nanostilbene in cancer patients"}, "[11]": {"settings": "animal studies; cited from earlier work"}, "[12]": {"tested_on": "interleukin-I, interleukin-6, interleukin-8, TNF-alpha", "settings": "cited from earlier work"}, "[13]": {"tested_on": "human umbilical vein VECs (HUVECs)", "settings": "cited from earlier work"}, "[14]": {"tested_on": "endothelium of atherosclerotic plaque", "settings": "apoE(−/−) mice, injection; cited from earlier work"}, "[15]": {"tested_on": "lipopolysaccharide-induced inflammatory reactions", "settings": "cited from earlier work"}, "[16]": {"tested_on": "sepsis induction with live Escherichia coli", "settings": "cited from earlier work; for concentration of IL-1a: controls 1187.0±278.64, P<0.05"}, "[17]": {"settings": "50 mg/kg, LPS 5 mg/kg 3 days later"}, "[18]": {"settings": "lung, serum, and bronchoalveolar lavage fluid"}}, "note": "Like-named read-outs stand apart in the source and are kept apart here.", "data": [{"compound": "C[S+]([O-])CCCCN=C=S", "note": "(stereo not shown) [sulforaphane, 1-isothiocyanato-4-(methylsulfinyl)-butane]", "values": [{"measurement": "HO-1 expression", "setting": "[1]; LPS-stimulated Nrf2 (+/+) primary peritoneal macrophages", "value": "significantly augmented"}, {"measurement": "LPS-stimulated mRNA expression, protein expression and production of TNF-alpha, IL-1beta, COX-2 and iNOS", "setting": "[1]; Nrf2 (+/+) primary peritoneal macrophages, pretreatment", "value": "potently inhibited"}, {"measurement": "anti-inflammatory effect", "setting": "[1]; Nrf2 (−/−) primary peritoneal macrophages", "value": "attenuated"}, {"measurement": "expression of NO and cytokines", "setting": "[2]", "value": "able to prevent"}, {"measurement": "serum levels of interleukin-6 (IL-6)", "setting": "LPS-induced ARDS [3]; 50 mg/kg, ELISA", "value": "significantly decreased"}, {"measurement": "serum levels of tumor necrosis factor-a (TNF-a)", "setting": "LPS-induced ARDS [3]; 50 mg/kg, ELISA", "value": "significantly decreased"}, {"measurement": "lactate dehydrogenase (LDH) activity", "setting": "LPS-induced ARDS [3]; [17]", "value": "significantly decreased"}, {"measurement": "wet-to-dry ratio of the lungs", "setting": "LPS-induced ARDS [3]; [17]", "value": "significantly decreased"}, {"measurement": "inducible nitric oxide synthase (iNOS) activity", "setting": "LPS-induced ARDS [3]; 50 mg/kg", "value": "significantly inhibited"}, {"measurement": "prostaglandin E2 (PGE2) production", "setting": "LPS-induced ARDS [3]; 50 mg/kg", "value": "significantly inhibited"}, {"measurement": "Nrf2/antioxidant response element (ARE) pathway", "setting": "LPS-induced ARDS [3]; pre-treatment", "value": "activated"}, {"measurement": "cyclooxygenase-2 (COX-2) protein expression", "setting": "LPS-induced ARDS [3]; western blot", "value": "significantly inhibited"}, {"measurement": "matrix metalloproteinase-9 (MMP-9) protein expression", "setting": "LPS-induced ARDS [3]; western blot", "value": "significantly inhibited"}]}, {"compound": "Epigallocatechin-3-Gallate [EGCG]", "values": [{"measurement": "NO production", "setting": "[4]; cells cotreated with EGCG and LPS", "value": "Inhibition"}, {"measurement": "disappearance of inhibitor kappaB from cytosolic fraction", "setting": "[4]", "value": "blocked"}, {"measurement": "activation of nuclear factor-kappaB", "setting": "[4]; electrophoretic mobility shift assay", "value": "blocked"}, {"measurement": "TNF-a-induced downregulation of ABCA1 and decrease in cholesterol efflux to apoA1", "setting": "macrophage foam cells", "value": "attenuated"}, {"measurement": "myeloperoxidase activity", "setting": "[5]", "value": "reduced"}, {"measurement": "myocardial damage", "setting": "[5]", "value": "reduced"}, {"measurement": "plasma IL-6 levels", "setting": "[5]", "value": "decreased"}, {"measurement": "plasma creatine phosphokinase levels", "setting": "[5]", "value": "decreased"}, {"measurement": "colonic tissue erosion", "setting": "[6]; 50 and 100 mg/kg/day", "value": "attenuation"}, {"measurement": "HIF-1a and STAT3 protein expression in the colon", "setting": "[6]; mouse, in vivo", "value": "decreasing"}, {"measurement": "plasma levels of IL-10", "setting": "[6]; mouse, in vivo", "value": "increasing"}, {"measurement": "plasma levels of TGF-1", "setting": "[6]; mouse, in vivo", "value": "increasing"}, {"measurement": "release of IL-6", "setting": "[6]; plasma", "value": "reduce"}, {"measurement": "release of IL-17", "setting": "[6]; plasma", "value": "reduce"}, {"measurement": "hypotension (mean arterial blood pressure)", "setting": "[7]", "value": "significantly improved"}, {"measurement": "survival", "setting": "[8]", "value": "significantly improved"}, {"measurement": "lethal sepsis", "setting": "[9]; first dose given 24 hours after cecal ligation and puncture", "value": "rescued"}, {"measurement": "lethal endotoxemia", "setting": "[9]; intraperitoneal administration", "value": "protected"}, {"measurement": "systemic accumulation of HMGB1, IL-6 and KC", "setting": "[9]; mouse, in vivo", "value": "attenuation"}, {"measurement": "LPS-induced ARDS", "setting": "LPS-induced ARDS [10]; 10 mg/kg ip 1 h before LPS 10 mg/kg ip", "value": "attenuated"}, {"measurement": "changes in blood gases", "setting": "LPS-induced ARDS [10]; 10 mg/kg ip", "value": "decreased"}, {"measurement": "histological lesions", "setting": "LPS-induced ARDS [10]; 10 mg/kg ip", "value": "reduced"}, {"measurement": "myeloperoxidase (MPO) activity", "setting": "LPS-induced ARDS [10]; 10 mg/kg ip", "value": "reduced"}, {"measurement": "expression of IKB-a", "setting": "LPS-induced ARDS [10]; lung tissue", "value": "increased"}, {"measurement": "expression of TLR-4, MyD88, TRIP, and p-p65", "setting": "LPS-induced ARDS [10]; lung tissue", "value": "alleviated"}, {"measurement": "expression of p65", "setting": "LPS-induced ARDS [10]; lung tissue", "value": "no influence"}, {"measurement": "expression of IL-6", "setting": "LPS-induced ARDS [10]; [18]", "value": "significantly decreased"}, {"measurement": "expression of interleukin (IL)-1′", "setting": "LPS-induced ARDS [10]; [18]", "value": "significantly decreased"}, {"measurement": "expression of tumor necrosis factor (TNF)-a", "setting": "LPS-induced ARDS [10]; [18]", "value": "significantly decreased"}]}, {"compound": "trans-3,5-dimethoxy-4-hydroxystilbene [pterostilbene]", "values": [{"measurement": "NK cell activity", "setting": "NK cell", "value": "increased"}, {"measurement": "interferon gamma production", "setting": "NK cell", "value": "increased"}, {"measurement": "bioavailability", "setting": "[11]", "value": 80, "unit": "%"}, {"measurement": "inflammatory cytokines associated with ARDS (interleukin-I, interleukin-6, interleukin-8, TNF-alpha)", "setting": "[12]", "value": "inhibit inflammatory cytokines"}, {"measurement": "oxLDL-induced cell shrinkage, chromatin condensation, nuclear fragmentation, and cell apoptosis", "setting": "[13]; HUVECs, oxLDL 200 μg/ml", "value": "protected against such injuries"}, {"measurement": "expression of lectin-like oxLDL receptor-I (LOX-1)", "setting": "[13]; in vitro and in vivo", "value": "inhibited"}, {"measurement": "number of TUNEL-positive cells in the endothelium of atherosclerotic plaque", "setting": "[14]", "value": "strongly decreased"}]}, {"compound": "CC1=CC(=O)C(C(C)C)=CC1=O", "note": "[thymoquinone]", "values": [{"measurement": "lipopolysaccharide-induced inflammatory reactions", "setting": "[15]", "value": "suppressed effectively"}, {"measurement": "concentration of nitric oxide", "setting": "[15]; marker of inflammation", "value": "reduced significantly"}, {"measurement": "concentration of IL-1a", "setting": "[16]; 0.75 mg/kg dose", "value": "310.8 ± 70.93", "unit": "pg/mL"}, {"measurement": "IL-10 levels", "setting": "[16]; 0.75 mg/kg, controls 5505.2±333.96, P<0.01", "value": "2885.0 ± 553.98", "unit": "pg/mL"}, {"measurement": "concentration of IL-1a", "setting": "[16]; 1 mg/kg group", "value": "428.3 ± 71.32", "unit": "pg/mL"}, {"measurement": "levels of IL-2", "setting": "[16]; P value 0.0851", "value": "relatively lower"}, {"measurement": "levels of TNF-a", "setting": "[16]; P value 0.1817", "value": "relatively lower"}, {"measurement": "reduced mortality", "setting": "[16]; mice, sepsis models", "value": "80-90%"}, {"measurement": "renal and hepatic biomarker profiles", "setting": "[16]; mice, sepsis models", "value": "improved"}]}]}
